According to patent US20240041827A1, “COMPOSITIONS FOR THE TREATMENT OF FAT RELATED CONDITIONS AND DISORDERS” (priority 2020, published 2024):
Like-named read-outs stand apart in the source and are kept apart here.

Tested on: human visceral preadipocytes
Experiment: cells
Details: for IC50: Homo sapiens
Procedure: Human visceral preadipocytes were seeded in 96-well white clear bottom plates at 10,000 cells per well in 100 μl pre-adipocyte medium and incubated overnight at 37° C. 5% CO2. On the following day, adipogenic differentiation was induced by addition of 100 μl/well differentiation medium and incubation continued for 5 days. Adipogenic differentiation was verified by microscopic evaluation, addition of adipored reagents and fluorescent measurement at Ex485 nm/Em572 nm. […] Staurosporine (1 μM) and 0.2% DMSO were used as controls. Plates were incubated at 37° C. 5% CO2 for 2, 6 and 24 hours. Following incubation, cytotoxicity was measured using Cell Titer Glo 2.0 (Promega).
Test Item RZL-12 (1-300 μM) was prepared on the day of the testing as 150 mM stock solutions in DMSO. The 150 mM represents a 500×stock of the highest desired tested concentration. The 150 mM stock solution was first serially diluted in DMSO to acquire 500×stock solutions for each of the RZL-012 concentrations. The 500×stock solutions were then diluted 1:25 in medium to acquire 20×intermediate stock solutions. Finally, the 20×intermediate stock solutions were further diluted 1:20 in the assay (on the plate) that included seeded cells.
The 600 μM represents a 20× stock of the highest desired tested concentration. […] Finally, the 20×intermediate stock solutions were further diluted 1:20 in the assay plate that included seeded cells.
Human visceral pre-adipocytes (HPrAD-vis): HPrAD-vis cells (Lonza cat #PT-5005) were thawed at 37° C. and transferred into 50 ml tubes containing pre-adipocytes PGM-2 growth medium (PBM-2, 10% FBS, 1-glutamine, GA-1000). Cells were centrifuged at 300 g for 10 minutes, the supernatant was removed (Leaving about 1 ml of wash medium for not disrupting the cells) and 2 ml fresh PGM-2 medium was added. After resuspension, cells were counted and seeded in T-75 and T25 flasks at a density of 9,000 cells/cm^2 ([…], 225,000 cells/T25 flask). Medium was changed every 2-3 days until reached confluence of 70%.
Cells were sub-cultured only once, as soon as they reached 70% confluence. For this purpose, the culture medium of each flask was removed and cells were washed once with 5 ml PBS. The flask was shaken to ensure that the entire surface was covered and the PBS was removed. Then, 3 ml/T75 flask or 1 ml/T25 flask of fresh dedicated Trypsin/EDTA solution (from Lonza) was added and the flasks were incubated for 3-4 minutes at RT until ˜90% cells were detached. The Trypsin/EDTA solution was then neutralized by addition of 6 ml/T75 flask or 3 ml/T25 flask of full PGM-2 growth medium. Cells were collected in 50 ml tubes and centrifuged 10 minutes at 300 g. The supernatant was removed and the cells were resuspended in 3 ml fresh medium. Cells were then counted using a haemacytometer slide after being diluted 1:2 in trypan blue (SIGMA). For sub-culturing, cells were seeded in new T75 flasks at a density of 9,000 cells/cm^2 containing 15 ml fresh growth medium. Alternatively, the cells were seeded in 96-well culture plates at a density of 10,000 cells/well for the cell treatments.
HPrAD-vis cells: HPrAD-vis passaged once were seeded in 96-well plates as described above (10000cells/well in 100 μl medium) and allowed to settle overnight at 37° C., 5% CO2. Following day, adipogenic differentiation was induced by addition of 100 μl/well differentiation medium and incubated for 5 days. Adipogenic differentiation was verified by microscopic evaluation, addition of adipored reagents and fluorescent measurement at Ex485 nm/Em572 nm. In the morning of day 6, test and reference items were prepared as described above. Cells' medium was replaced with 90 μl fresh differentiation medium. […] Staurosporine (1 μM) and 0.2% DMSO were used as controls. Plates were incubated at 37° C. 5% CO2 for 2, 6 and 24 hours. Following incubation, cell viability was determined using the CellTiter-Gg® viability reagent (Promega) with reading of plates for luminescence. […]

## C[N+](C)(C)CCCCCn1c2ccc(Br)cc2c2cc(Br)ccc21.[Cl-] [RZL-012, 5-(3,6-dibromo-9H-carbazol-9-yl)-N,N,N-trimethylpentan-1-aminium chloride]
2 h, read-out: IC50 of RZL-12 in the presence of Collagenase, Collagenase 0, 2 h incubation
  IC50: 31.4 µM
2 h, read-out: IC50 of RZL-12 in the presence of Collagenase, Collagenase 0.1 μM, 2 h incubation
  IC50: 32.4 µM
2 h, read-out: IC50 of RZL-12 in the presence of Collagenase, Collagenase 0.3 μM, 2 h incubation
  IC50: 35.7 µM
2 h, read-out: IC50 of RZL-12 in the presence of Collagenase, Collagenase 1 μM, 2 h incubation
  IC50: 32.6 µM
2 h, read-out: IC50 of RZL-12 in the presence of Collagenase, Collagenase 3 μM, 2 h incubation
  IC50: ~31.2 µM
2 h, read-out: IC50 of RZL-12 in the presence of Collagenase, Collagenase 10 μM, 2 h incubation
  IC50: 71.3 µM
2 h, read-out: IC50 of RZL-12 in the presence of Collagenase, Collagenase 30 μM, 2 h incubation
  IC50: ~93.2 µM
6 h, read-out: IC50 of RZL-12 in the presence of Collagenase, Collagenase 0, 6 h incubation
  IC50: 34.6 µM
6 h, read-out: IC50 of RZL-12 in the presence of Collagenase, Collagenase 0.1 μM, 6 h incubation
  IC50: 44.3 µM
6 h, read-out: IC50 of RZL-12 in the presence of Collagenase, Collagenase 0.3 μM, 6 h incubation
  IC50: 45.1 µM
6 h, read-out: IC50 of RZL-12 in the presence of Collagenase, Collagenase 1 μM, 6 h incubation
  IC50: 44.2 µM
6 h, read-out: IC50 of RZL-12 in the presence of Collagenase, Collagenase 3 μM, 6 h incubation
  IC50: ~30.5 µM
6 h, read-out: IC50 of RZL-12 in the presence of Collagenase, Collagenase 10 μM, 6 h incubation
  IC50: 36.5 µM
6 h, read-out: IC50 of RZL-12 in the presence of Collagenase, Collagenase 30 μM, 6 h incubation
  IC50: 38.8 µM
24 h, read-out: IC50 of RZL-12 in the presence of Collagenase, Collagenase 0, 24 h incubation
  IC50: 22.8 µM
24 h, read-out: IC50 of RZL-12 in the presence of Collagenase, Collagenase 0.1 μM, 24 h incubation
  IC50: 38 µM
24 h, read-out: IC50 of RZL-12 in the presence of Collagenase, Collagenase 0.3 μM, 24 h incubation
  IC50: 38.5 µM
24 h, read-out: IC50 of RZL-12 in the presence of Collagenase, Collagenase 1 μM, 24 h incubation
  IC50: ~36.1 µM
24 h, read-out: IC50 of RZL-12 in the presence of Collagenase, Collagenase 3 μM, 24 h incubation
  IC50: 22.9 µM
24 h, read-out: IC50 of RZL-12 in the presence of Collagenase, Collagenase 10 μM, 24 h incubation
  IC50: 28.8 µM
24 h, read-out: IC50 of RZL-12 in the presence of Collagenase, Collagenase 30 μM, 24 h incubation
  IC50: 28.8 µM
read-out: IC50 when combined, RZL-012 and collagenase combined
  IC50: 0.02 µM
RZL12 0.01 μM, Collagenase 0, 2 h of incubation
  Average RZL-012 and collagenase induced cell death (% vs untreated cells): 10.0%
RZL12 0.01 μM, Collagenase 0.1 μM, 2 h of incubation
  Average RZL-012 and collagenase induced cell death (% vs untreated cells): 6.5%
RZL12 0.01 μM, Collagenase 0.3 μM, 2 h of incubation
  Average RZL-012 and collagenase induced cell death (% vs untreated cells): 0.8%
RZL12 0.01 μM, Collagenase 1 μM, 2 h of incubation
  Average RZL-012 and collagenase induced cell death (% vs untreated cells): 5.3%
RZL12 0.01 μM, Collagenase 3 μM, 2 h of incubation
  Average RZL-012 and collagenase induced cell death (% vs untreated cells): 20.5%
RZL12 0.01 μM, Collagenase 10 μM, 2 h of incubation
  Average RZL-012 and collagenase induced cell death (% vs untreated cells): 30.3%
RZL12 0.01 μM, Collagenase 30 μM, 2 h of incubation
  Average RZL-012 and collagenase induced cell death (% vs untreated cells): 46.4%
RZL12 1 μM, Collagenase 0, 2 h of incubation
  Average RZL-012 and collagenase induced cell death (% vs untreated cells): 7.0%
RZL12 1 μM, Collagenase 0, 24 h of incubation
  Average RZL-012 and collagenase induced cell death (% vs untreated cells): 4.88%
RZL12 1 μM, Collagenase 0.1 μM, 2 h of incubation
  Average RZL-012 and collagenase induced cell death (% vs untreated cells): 6.5%
RZL12 1 μM, Collagenase 0.1 μM, 24 h of incubation
  Average RZL-012 and collagenase induced cell death (% vs untreated cells): 8.18%
RZL12 1 μM, Collagenase 0.3 μM, 2 h of incubation
  Average RZL-012 and collagenase induced cell death (% vs untreated cells): 3.0%
RZL12 1 μM, Collagenase 0.3 μM, 24 h of incubation
  Average RZL-012 and collagenase induced cell death (% vs untreated cells): −0.25%
RZL12 1 μM, Collagenase 1 μM, 2 h of incubation
  Average RZL-012 and collagenase induced cell death (% vs untreated cells): 2.0%
RZL12 1 μM, Collagenase 1 μM, 24 h of incubation
  Average RZL-012 and collagenase induced cell death (% vs untreated cells): 16.48%
RZL12 1 μM, Collagenase 3 μM, 2 h of incubation
  Average RZL-012 and collagenase induced cell death (% vs untreated cells): 19.2%
RZL12 1 μM, Collagenase 3 μM, 24 h of incubation
  Average RZL-012 and collagenase induced cell death (% vs untreated cells): 28.74%
RZL12 1 μM, Collagenase 10 μM, 2 h of incubation
  Average RZL-012 and collagenase induced cell death (% vs untreated cells): 29.9%
RZL12 1 μM, Collagenase 10 μM, 24 h of incubation
  Average RZL-012 and collagenase induced cell death (% vs untreated cells): 64.29%
RZL12 1 μM, Collagenase 30 μM, 2 h of incubation
  Average RZL-012 and collagenase induced cell death (% vs untreated cells): 48.0%
RZL12 1 μM, Collagenase 30 μM, 24 h of incubation
  Average RZL-012 and collagenase induced cell death (% vs untreated cells): 78.45%
RZL12 3 μM, Collagenase 0, 2 h of incubation
  Average RZL-012 and collagenase induced cell death (% vs untreated cells): 5.9%
RZL12 3 μM, Collagenase 0, 24 h of incubation
  Average RZL-012 and collagenase induced cell death (% vs untreated cells): 6.40%
RZL12 3 μM, Collagenase 0.1 μM, 2 h of incubation
  Average RZL-012 and collagenase induced cell death (% vs untreated cells): −1.6%
RZL12 3 μM, Collagenase 0.1 μM, 24 h of incubation
  Average RZL-012 and collagenase induced cell death (% vs untreated cells): 3.62%
RZL12 3 μM, Collagenase 0.3 μM, 2 h of incubation
  Average RZL-012 and collagenase induced cell death (% vs untreated cells): 1.1%
RZL12 3 μM, Collagenase 0.3 μM, 24 h of incubation
  Average RZL-012 and collagenase induced cell death (% vs untreated cells): 2.09%
RZL12 3 μM, Collagenase 1 μM, 2 h of incubation
  Average RZL-012 and collagenase induced cell death (% vs untreated cells): 6.1%
RZL12 3 μM, Collagenase 1 μM, 24 h of incubation
  Average RZL-012 and collagenase induced cell death (% vs untreated cells): 16.21%
RZL12 3 μM, Collagenase 3 μM, 2 h of incubation
  Average RZL-012 and collagenase induced cell death (% vs untreated cells): 18.0%
RZL12 3 μM, Collagenase 3 μM, 24 h of incubation
  Average RZL-012 and collagenase induced cell death (% vs untreated cells): 27.36%
RZL12 3 μM, Collagenase 10 μM, 2 h of incubation
  Average RZL-012 and collagenase induced cell death (% vs untreated cells): 26.4%
RZL12 3 μM, Collagenase 10 μM, 24 h of incubation
  Average RZL-012 and collagenase induced cell death (% vs untreated cells): 63.40%
RZL12 3 μM, Collagenase 30 μM, 2 h of incubation
  Average RZL-012 and collagenase induced cell death (% vs untreated cells): 47.6%
RZL12 3 μM, Collagenase 30 μM, 24 h of incubation
  Average RZL-012 and collagenase induced cell death (% vs untreated cells): 77.35%
